Data set [1] deals with A549, HEK-293, and J774A.1 cells. In words: Mammalian cytotoxicity. The conditions noted are these: positive control treatment.
The test system of a further data set is Mtb H37Rv. The data set is classed as cell-based, Mycobacterium tuberculosis.

The results in this text go back to paper PMC5971065 (ACS infectious diseases, 2017).

For Triton X-100, the cytotoxicity result in data set [1] is given as “most of the cells killed”.

Consider kanamycin A, for which the “H37Rv MICKAN” value with Mtb H37Rv stood at 1.25 µg/mL.
